From patent US8178506B2, “Oligomeric compounds and compositions for use in modulation of small non-coding RNAs” (Regulus Therapeutics Inc., priority 2003, dated 2012)
In the oligonucleotide strings, read from the 5' end, every base follows the letter of its sugar. An asterisk marks phosphorothioate; unmarked linkages are phosphodiester. Other units and linkages are bracketed, terminal groups are in braces. A string of capitals states the bases alone. e = 2'-O-(2-methoxyethyl) (MOE); [5mC] = 5-methylcytosine

Tested on: mir-15a pri-miRNA
Test: mir-15a pri-miRNA expression in T47D cells (real-time RT-PCR)
Type: cell-based, human
Details: real-time RT-PCR
In short: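 T47D cells transfected with 100 nM uniform 2′-MOE or gapmer oligomers. Pri-miRNA measured by real-time RT-PCR with a mir-15a-specific primer/probe set, normalized to 5.8S rRNA, expressed as percentage of untreated control RNA levels.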

Row | Substance | mir-15a pri-miRNA expression % UTC
1 | 327901 (antisense eT*eG*eA*eG*e[5mC]*eT*eA*e[5mC]*eA*eG*eT*eG*e[5mC]*eT*eT*e[5mC]*eA*eT*e[5mC]*eT*e[5mC]*eA) [compound 327901] | 132 % UTC
2 | 327951 (antisense e[5mC]*eA*e[5mC]*eA*eA*eA*e[5mC]*e[5mC]*eA*eT*eT*eA*eT*eG*eT*eG*e[5mC]*eT*eG*e[5mC]*eT*eA) [compound 327951] | 713 % UTC
